Reference: patent US10561637B2, “Methods for treating angiogenesis related disorder” (KAOHSIUNG MEDICAL UNIVERSITY, priority 2017, dated 2020)
“Also recorded” adds a separate entry of the source.

How the values were obtained:
human EPCs [1] = assay: Sulforhodamine B (SRB) cell proliferation assay in human EPCs; type: cell-based; conditions: 48th hour
Method: (§1) Mitella formosana (Hayata) Masam. is a perennial herb of Saxifragaceae, a native plant of Taiwan. In the present invention, three kinds of tannin compounds, PGG, tellimagrandin I, and tellimagrandin II, found in the compounds extracted from Mitella formosana by using Bioassay-guided fractionation, inhibited the proliferation of EPCs in a concentration dependent manner. […] The results of tube formation assay confirmed that these three compounds (10 μM) inhibited the tube formation of EPCs in different degrees (FIG. 2B). […] Importantly, CAM-angiogenesis model and mice Matrigel-plus model were used to verify the anti-angiogenic effect of tellimagrandin II in vivo.

human EPCs [2] = assay: tube formation assay (capillary-like structures) in human EPCs; type: cell-based; conditions: 5 and 10 μM, 24 hours, phase-contrast microscope
Description: The data of five independent experiments are expressed as the mean±mean standard deviation. As compared with the control group, * means p<0.05; *** means p<0.001.
as §1

chicken embryo = assay: chorioallantoic membrane (CAM) angiogenesis assay; type: in vivo; conditions: CAM-angiogenesis model
Description: (§2) Sorafenib is a multiple kinase inhibitor, which is used as a positive control in the in vivo anti-angiogenesis assay.
as §1

human EPCs [3] = assay: lactate dehydrogenase (LDH) release assay in human EPCs; type: cell-based; conditions: 10-20 μM, 24th hour
Description: The data of five independent experiments are expressed as the mean±mean standard deviation. As compared with the control group, * means p<0.05; ** means p<0.05; *** means p<0.001.
as §1

mice = assay: Matrigel plug model of capillary formation; type: in vivo
Description: as §2, §1

O=C(OC1O[C@@H]2COC(=O)c3cc(O)c(O)c(O)c3-c3c(cc(O)c(O)c3O)C(=O)O[C@H]2[C@H](OC(=O)c2cc(O)c(O)c(O)c2)[C@H]1OC(=O)c1cc(O)c(O)c(O)c1)c1cc(O)c(O)c(O)c1 (some centres unmarked) [tellimagrandin II]
proliferation of EPCs (human EPCs [1]): suppress the proliferation of EPCs in a concentration dependent manner; also recorded: exhibited the most potent effect
tube formation of EPCs, concentration dependence (human EPCs [2]): inhibited the tube formation of EPCs in a concentration dependent manner
in vivo neovascularization in the chicken embryo (chicken embryo): inhibited in vivo neovascularization in the chicken embryo in a concentration dependent manner
LDH release (cytotoxicity) (human EPCs [3]): LDH release was not induced
formation of capillaries in mice (mice): effectively inhibited the formation of capillaries in mice

O=C(OC[C@H]1O[C@@H](OC(=O)c2cc(O)c(O)c(O)c2)[C@H](OC(=O)c2cc(O)c(O)c(O)c2)[C@@H](OC(=O)c2cc(O)c(O)c(O)c2)[C@@H]1OC(=O)c1cc(O)c(O)c(O)c1)c1cc(O)c(O)c(O)c1 [PGG, 1,2,3,4,6-penta-O-galloyl-β-D-glucose]
proliferation of EPCs (human EPCs [1]): suppress the proliferation of EPCs in a concentration dependent manner
tube formation of EPCs, concentration dependence (human EPCs [2]): inhibited the tube formation of EPCs in a concentration dependent manner

O=C(O[C@H]1[C@@H]2OC(=O)c3cc(O)c(O)c(O)c3-c3c(cc(O)c(O)c3O)C(=O)OC[C@H]2OC(O)[C@@H]1OC(=O)c1cc(O)c(O)c(O)c1)c1cc(O)c(O)c(O)c1 (some centres unmarked) [tellimagrandin I]
proliferation of EPCs (human EPCs [1]): suppress the proliferation of EPCs in a concentration dependent manner
